Laboratory results: PubChem BioAssay AID435021 (Vanderbilt High Throughput Screening Facility, 2010)
The source made the active and inactive calls.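 How the source made its calls: active means response to a near-maximal acetylcholine dose cut to 15% or less of untreated controls; inactive means the rest.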

target: Muscarinic acetylcholine receptor M1 (Homo sapiens) (UniProt P11229); assay: M1 receptor antagonist activity of analogs, SAR follow-up, cell-based, CHO-K1 hM1, Fluo-4 calcium, ACh EC80 (AID 435021); conditions: at 30 µM, stronger effect = lower value
Sequence (P11229 whole entry, looked up): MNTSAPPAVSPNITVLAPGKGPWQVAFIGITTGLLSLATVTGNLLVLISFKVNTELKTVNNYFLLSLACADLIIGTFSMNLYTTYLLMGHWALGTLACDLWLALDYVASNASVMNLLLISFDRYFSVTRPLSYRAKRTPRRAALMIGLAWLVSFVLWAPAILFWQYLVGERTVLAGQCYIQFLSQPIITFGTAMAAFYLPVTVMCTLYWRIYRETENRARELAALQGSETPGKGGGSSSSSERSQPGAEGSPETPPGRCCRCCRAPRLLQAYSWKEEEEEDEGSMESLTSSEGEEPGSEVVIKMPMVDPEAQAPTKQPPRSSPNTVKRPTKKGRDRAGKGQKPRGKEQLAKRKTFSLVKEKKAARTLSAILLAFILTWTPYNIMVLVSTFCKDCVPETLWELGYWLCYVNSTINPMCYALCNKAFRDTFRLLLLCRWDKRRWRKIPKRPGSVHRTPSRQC

For `O=C(CCNS(=O)(=O)c1cccc2nsnc12)N1CCN(c2ccccc2F)CC1`, which remaining EC80 response is on record?
The remaining EC80 response was 63.5% (inactive).

Which remaining EC80 response does the source give for `O=C([C@@H](F)CNS(=O)(=O)c1cccc2nonc12)N1CCN(c2ccncc2)CC1` here?
The remaining EC80 response was 56.6% (inactive).

Which remaining EC80 response does the source give for `Cc1cccc(N2CCN(C(=O)CCNS(=O)(=O)c3cccc4nsnc34)CC2)n1` here?
Its remaining EC80 response is 35.7% (inactive).

`O=C(CCNS(=O)(=O)c1cccc2nsnc12)N1CCN(c2ncccn2)CC1` was tested. Which remaining EC80 response did it give?
The remaining EC80 response was 62.7% (inactive).

How did the remaining EC80 response turn out when `CN(CCC(=O)N1CCN(c2ccncc2)CC1)S(=O)(=O)c1cccc2nsnc12` was run?
The remaining EC80 response was 35.8% (inactive).

How did the remaining EC80 response turn out when `COc1cccc(N2CCN(C(=O)CCNS(=O)(=O)c3cccc4nsnc34)CC2)n1` was run?
Its remaining EC80 response is 14.4%.

`O=C(CCNS(=O)(=O)c1cccc2nsnc12)N1CCN(c2cc(F)ccn2)CC1` was tested. Which remaining EC80 response did it give?
Its remaining EC80 response is 6.52%.

`O=C(CCNS(=O)(=O)c1cccc2nsnc12)N1CCN(c2ncc(Cl)cn2)CC1` was tested. Which remaining EC80 response did it give?
Its remaining EC80 response is 7.16%.

How did the remaining EC80 response turn out when `COc1cccnc1N1CCN(C(=O)CCNS(=O)(=O)c2ccc([N+](=O)[O-])cc2)CC1` was run?
The remaining EC80 response was 92.7% (inactive).

How did the remaining EC80 response turn out when `O=C(CCNS(=O)(=O)c1cccc2nsnc12)N1CCN(c2cccc(F)n2)CC1` was run?
Its remaining EC80 response is 3.23%.

How did the remaining EC80 response turn out when `O=C(CCNS(=O)(=O)c1cccc2nsnc12)N1CCN(c2cc(C(F)(F)F)ccn2)CC1` was run?
Its remaining EC80 response is 35.4% (inactive).

For `Cc1cnccc1N1CCN(C(=O)CCNS(=O)(=O)c2cccc3nsnc23)CC1`, which remaining EC80 response is on record?
The remaining EC80 response was 1.43%.

`O=C(C(F)CNS(=O)(=O)c1cccc2nonc12)N1CCN(c2ccncc2)CC1` (stereo unspecified) was tested. Which remaining EC80 response did it give?
The remaining EC80 response was 2.42%.

Which remaining EC80 response does the source give for `O=C(CCNS(=O)(=O)c1cccc2nsnc12)N1CCN(c2ccnc(Cl)c2)CC1` here?
Its remaining EC80 response is 8.91%.

With `COc1cccnc1N1CCN(C(=O)CCNS(=O)(=O)c2cccc(C#N)c2)CC1` as the compound, how does the remaining EC80 response read?
The remaining EC80 response was 97% (inactive).

`O=C(CCNS(=O)(=O)c1cccc2nonc12)N1CCN(c2ccc(Br)cn2)CC1` was tested. Which remaining EC80 response did it give?
Its remaining EC80 response is 0.916%.

Which remaining EC80 response does the source give for `O=C(CCNS(=O)(=O)c1cccc2nsnc12)N1CCN(c2ccncc2)CC1` here?
Its remaining EC80 response is 1.97%.

Which remaining EC80 response does the source give for `COc1cccnc1N1CCN(C(=O)CCNS(=O)(=O)c2ccccc2[N+](=O)[O-])CC1` here?
Its remaining EC80 response is 90% (inactive).

`O=C(CCNS(=O)(=O)c1cccc2nsnc12)N1CCN(c2nc(Cl)ns2)CC1` was tested. Which remaining EC80 response did it give?
The remaining EC80 response was 31.6% (inactive).

For `O=C(CCNS(=O)(=O)c1cccc2nsnc12)N1CCN(c2ccccn2)CC1`, which remaining EC80 response is on record?
Its remaining EC80 response is 16.5% (inactive).

How did the remaining EC80 response turn out when `COc1cccnc1N1CCN(C(=O)CCNS(=O)(=O)c2ccccc2C#N)CC1` was run?
Its remaining EC80 response is 91.8% (inactive).

How did the remaining EC80 response turn out when `O=C(CCNS(=O)(=O)c1cccc2nsnc12)N1CCN(c2cccnc2)CC1` was run?
Its remaining EC80 response is 13.6%.

Which remaining EC80 response does the source give for `N#Cc1ccccc1N1CCN(C(=O)CCNS(=O)(=O)c2cccc3nsnc23)CC1` here?
Its remaining EC80 response is 43.9% (inactive).

`O=C(CCNS(=O)(=O)c1cccc2nsnc12)N1CCN(c2ncccc2C(F)(F)F)CC1` was tested. Which remaining EC80 response did it give?
Its remaining EC80 response is 64.7% (inactive).

`O=C(CCNS(=O)(=O)c1cccc2nonc12)N1CCN(c2ccncc2)CC1` was tested. Which remaining EC80 response did it give?
Its remaining EC80 response is 3.02%.

With `O=C(CCNS(=O)(=O)c1cccc2nsnc12)N1CCN(c2nc3ccccc3o2)CC1` as the compound, how does the remaining EC80 response read?
The remaining EC80 response was 13.3%.

For `COc1cccnc1N1CCN(C(=O)C(F)CNS(=O)(=O)c2cccc3nsnc23)CC1` (stereo unspecified), which remaining EC80 response is on record?
Its remaining EC80 response is 19.4% (inactive).

`O=C(CCNS(=O)(=O)c1cccc2nsnc12)N1CCN(c2nc3ccccc3s2)CC1` was tested. Which remaining EC80 response did it give?
The remaining EC80 response was 6.19%.

With `Cc1cc(Cl)nc(N2CCN(C(=O)CCNS(=O)(=O)c3cccc4nsnc34)CC2)c1C#N` as the compound, how does the remaining EC80 response read?
Its remaining EC80 response is 3.37%.

For `O=C([C@H](F)CNS(=O)(=O)c1cccc2nonc12)N1CCN(c2ccncc2)CC1`, which remaining EC80 response is on record?
The remaining EC80 response was 8.19%.

With `COc1ccccc1N1CCN(C(=O)CCNS(=O)(=O)c2cccc3nsnc23)CC1` as the compound, how does the remaining EC80 response read?
Its remaining EC80 response is 102% (inactive).

`COc1cccnc1N1CCN(C(=O)C(F)CNS(=O)(=O)c2cccc3nonc23)CC1` (stereo unspecified) was tested. Which remaining EC80 response did it give?
Its remaining EC80 response is 29.7% (inactive).

`O=C(C(F)CNS(=O)(=O)c1cccc2nsnc12)N1CCN(c2ccncc2)CC1` (stereo unspecified) was tested. Which remaining EC80 response did it give?
The remaining EC80 response was 13.6%.

`O=C(CCNS(=O)(=O)c1cccc2nsnc12)N1CCN(c2nccs2)CC1` was tested. Which remaining EC80 response did it give?
Its remaining EC80 response is 5.68%.

`O=C(CCNS(=O)(=O)c1cccc2nsnc12)N1CCN(c2ccc(Br)cn2)CC1` was tested. Which remaining EC80 response did it give?
Its remaining EC80 response is -0.332%.

For `O=C(CCNS(=O)(=O)c1cccc2nsnc12)N1CCN(c2cc(Cl)ccn2)CC1`, which remaining EC80 response is on record?
The remaining EC80 response was 10.1%.

For `COc1cccnc1N1CCN(C(=O)CCNS(=O)(=O)c2cn(C)c(C)n2)CC1`, which remaining EC80 response is on record?
Its remaining EC80 response is 98.5% (inactive).

`COc1cccnc1N1CCN(C(=O)CCNS(=O)(=O)c2cccc(-c3noc(C)n3)c2)CC1` was tested. Which remaining EC80 response did it give?
Its remaining EC80 response is 97.5% (inactive).

With `O=C(CCNS(=O)(=O)c1cccc2nsnc12)N1CCN(c2cccc(Cl)n2)CC1` as the compound, how does the remaining EC80 response read?
Its remaining EC80 response is 5.92%.

How did the remaining EC80 response turn out when `Cc1ccnc(N2CCN(C(=O)CCNS(=O)(=O)c3cccc4nsnc34)CC2)c1` was run?
Its remaining EC80 response is 45.8% (inactive).

`COc1cccnc1N1CCN(C(=O)CCNS(=O)(=O)c2ccc3nsnc3c2)CC1` was tested. Which remaining EC80 response did it give?
Its remaining EC80 response is 77.1% (inactive).
